Measurements reported in PubChem BioAssay AID588840 (Broad Institute, 2011).

Tested on: not listed separately
Experiment: cytotoxicity in MDA231 breast tumor cells – cell-based, CellTiter-Glo luminescence, dry powder, set 2, dose response (AID 588840)
Details: MDA-MB-231 viability, CellTiter-Glo luminescence, 72 h; at 32 µM (top of the series)

Question: For `O=C(NC1CCCC1)c1ccc(COc2ccccc2)o1`, which viability fraction (lower = toxic) is on record?
Answer: 101%

Question: Which viability fraction (lower = toxic) does the source give for `COc1ccc(/C=C/C(=O)NC2=NCCS2)c(OC)c1` here?
Answer: 118%

Question: With `O=C(/C=C/c1ccc(-c2ccccc2)cc1)NC1=NCCS1` as the compound, how does the viability fraction (lower = toxic) read?
Answer: 76.4%

Question: For `Cc1ccc(/C=C/C(=O)NC2=NCCS2)cc1`, which viability fraction (lower = toxic) is on record?
Answer: 114%

Question: With `Cc1csc(NC(=O)c2ccc(COc3ccccc3)o2)n1` as the compound, how does the viability fraction (lower = toxic) read?
Answer: 72.4%

Question: Which viability fraction (lower = toxic) does the source give for `CC(C)c1ccc(/C=C/C(=O)NC2=NCCS2)cc1` here?
Answer: 34.6%

Tested on: MDA-MB-231 viability, CellTiter-Glo luminescence, 72 h
Experiment: as above
Details: not given

Question: For `Cc1csc(NC(=O)c2ccc(COc3cccc(F)c3)o2)n1`, which AC50 is on record?
Answer: 480 nM
